Counter-ions that a name gives are not always drawn.
How the values were obtained:
[1] = test system: siRNA-mediated mRNA degradation; test: cell-based reporter screen: human 293 cells stably expressing GFP plus siRNA hairpin against GFP; conditions: for Modulation Effect (inhibit or enhance siRNA-mediated mRNA degradation): Table 1
Procedure: FIG. 2 discloses one embodiment of the cell-based reporter system of the invention. In this example, a human 293-cell line stably expressing a reporter gene, GFP, was used. This cell line was further transfected with a construct that expresses siRNA hairpin against GFP, which can decrease the level of GFP expression. Individual clones were isolated with greatly (although not completely) reduced GFP expression.
Using the above-identified clones, a screen was performed using The Spectrum Collection (MicroSource Discovery Systems, Inc., Gaylordsville, Conn., United States of America), which contains 2000 biologically active and structurally diverse compounds from libraries of known drugs, experimental bioactives, and pure natural products. For example, in one embodiment, a pilot screen of this library identified one inhibitor and one enhancer of siRNA-mediated mRNA degradation.
To identify the chemical compounds that modulate the siRNA and miRNA pathway, a screening strategy was used. A human 293-cell line stably expressing a reporter gene, GFP, was used. This cell line was further transfected with a construct that expresses siRNA hairpin against GFP, which could knock down the expression of GFP. […] Using these clones, a screen was performed using The Spectrum Collection, which contains 2000 biologically active and structurally diverse compounds from libraries of known drugs, experimental bioactives, and pure natural products.
Human 293 cells stably expressing a reporter gene, GFP, were further transfected with a construct that expresses an siRNA hairpin against GFP, which results in the knock-down of the expression of GFP. Transfected cells containing the siRNA suppressed GPF expression were split and then treated with an effective amount of enoxacin (FIG. 4, second panel) and were grown for a period of 24-48 hours.

[2] = test system: Clone#3, 293-EGFP-siGFP cells; test: plate-reader chemical library screen, GFP signal in Clone#3 cells; type: cell-based, human; conditions: for Clone#3, 293-EGFP-siGFP cells GFP signal intensity with Drug alone: plate reader
Text: Further, in some embodiments, additional screens using the same library can be performed to identify other modulators of the siRNA and the miRNA pathways. In some embodiments, instead of examining the GFP signal visually under a microscope, the GFP signal can be quantified using an automatic plate reader. In such embodiments, two additional rounds of screening can be performed. In the first round of screening, the clones can be treated with compounds from a library, e.g., The Spectrum Collection, alone and the GFP level can be quantified after a period of time, e.g., 48 hours. In the second round of screening, the clones can be treated with compounds from a library, e.g., The Spectrum Collection, in the presence of 50 μM RNAi-E, i.e., enoxacin. This assay enables compounds that can modulate the activity of RNAi-E to be identified.
(§1) The presently disclosed chemical library also was screened using a plate reader to quantify the GFP signal intensity. The following screens were conducted: (1) repeating chemical screen using plate reader to quantify the GFP signal (50 mM each drug); (2) treating cells with 50 mM RNAi-I (30 mM each additional drug); and treating cells with […] (30 mM each additional drug).
(§2) For each screen, two types of cells were used: Clone#3 and EGFP. Clone#3 cells are 293-EGFP-siGFP and could be used to identify the modulators of the RNAi pathway. EGFP cells are 293-EGFP only and were used as a control to eliminate the compounds that could kill the cells or interfere GFP signals that are not related to RNAi pathway. The results for each screen are summarized in Table 2 and Table 3, respectively.
(§3) In these three screens, compounds were identified that could either enhance or inhibit RNAi activity in Clone#3, but had no effect on EGFP cells, which would indicate that these compounds might specifically work on RNAi pathway. The modulation of RNAi activity by these compounds was calculated as the percentage of GFP signal to Clone#3 control cells.

[3] = test system: EGFP, 293-EGFP cells; test: plate-reader chemical library screen, GFP signal in control EGFP cells; type: cell-based, human; conditions: for EGFP, 293-EGFP cells With RNAi-E / EGFP, 293-EGFP cells Drug alone: GFP signal
Procedure: as §1, §2, §3

[4] = test system: tumor cell models; conditions: cited from earlier work
[5] = test system: shRNA against Luciferase mRNA; test: GL-3 luciferase reporter in cells expressing shRNA against luciferase; type: cell-based; conditions: FIG. 5
Text: In this example, a luciferase reporter construct GL-3 was transfected into the cells expressing shRNA against Luciferase mRNA.

[6] = 50 mM RNAi-E, 30 mM each additional drug
[7] = 50 mM RNAi-E, 30 mM each additional drug, values given as decimals
[8] = 50 mM each drug, values given as decimals

Compound	Modulation Effect (inhibit or enhance siRNA-mediated mRNA degradation) [1]	Effect ([2]; Table 2)	Effect ([2]; as listed in Table 3)	Clone#3, 293-EGFP-siGFP cells GFP signal intensity with Drug and RNAi-E [2, 6]	Clone#3, 293-EGFP-siGFP cells GFP signal intensity with Drug alone ([2]; 50 mM each drug)	EGFP, 293-EGFP cells With RNAi-E [3, 6]	EGFP, 293-EGFP cells Drug alone ([3]; 50 mM each drug)	other results
C=C[C@@]1(C)CC(=O)[C@]2(O)[C@@]3(C)[C@@H](O)CCC(C)(C)[C@@H]3[C@H](O)[C@H](OC(C)=O)[C@@]2(C)O1 [Colforsin]	Inhibitor	Inhibitor	Inhibitor					
Nc1nc2[nH]cnc2c(=S)[nH]1 [Thioguanine]	Enhancer	Enhancer	Enhancer	9228044.75	11903224.8	193528220	181033260	
CC(C)C[C@H]1C(=O)N2CCC[C@H]2[C@]2(O)O[C@](NC(=O)[C@@H]3C=C4c5cccc6[nH]c(Br)c(c56)C[C@H]4N(C)C3)(C(C)C)C(=O)N12 [Bromocriptine Mesylate]				10893798	7607590	136409552	132392840	
Cc1ncc(CO)c(C=NNC(=O)c2ccncc2)c1O [P1H, pyridoxal isonicotinoyl hydrazone]								anti-proliferative activity [4]: anti-proliferative activity
CC(=O)O[C@@H]1C[C@H]2C(C)(C)[C@@H](O)CC[C@]2(C)[C@H]2CC[C@]3(C)C(=CC(=O)O[C@H]3c3ccoc3)[C@@]21C [3-beta-Hyroxydeoxo-dihydrodeoxygedunin, 3-beta-hydroxydeoxodihydrodeoxygedunin]	Enhancer	Enhancer	Enhancer	13998738	17430963	186574276	213530556	
NC(=S)NN=Cc1ccc(O)cn1 [5-HP, 5-hydroxypyridine-2-carboxaldehyde thiosemicarbazone]								anti-proliferative activity [4]: anti-proliferative activity
O=C(NCCN(CCNC(=O)c1cc(S(=O)(=O)O)c2cccnc2c1O)CCNC(=O)c1cc(S(=O)(=O)O)c2cccnc2c1O)c1cc(S(=O)(=O)O)c2cccnc2c1O [OTX, O-trensox]								anti-proliferative activity [4]: anti-proliferative activity
O=C(O)CCC(=O)c1ccc(-c2ccccc2)cc1 [Fenbufen]	Enhancer	Enhancer	Enhancer	17801864.5	26499027	191729340	204633204	
Cc1ccc(/C(=C\CN2CCCC2)c2ccccn2)cc1 [Triprolidine Hydrochloride]				19639902.5	26791778.5	202110668	202102776	
COc1cc(C(=O)NCc2ccc(OCCN(C)C)cc2)cc(OC)c1OC [trimethobenzamide]								siRNA-mediated mRNA degradation and gene knock-down ([1]; pilot screen of The Spectrum Collection, FIG. 3, FIG. 4): inhibit siRNA-mediated mRNA degradation and gene knock-down
C=C1C2CCC3(C)C(c4ccoc4)OC(=O)CC13OC1CC(O)C(C)(C)C(CC(=O)OC)C12C (stereo not drawn) [3-alpha-hydroxy-3-deoxyangolensic acid methyl ester]	Enhancer	Enhancer	Enhancer	10902446	10997867	118263232	129330172	
Cc1cc(=O)c2c(O)c3c(cc2o1)OCC(C)CC3 (stereo not drawn) [Dihydroptaeroxylin]	Enhancer	Enhancer	Enhancer	17140237.8	26383349	194786588	215783848	Clone#3, 293-EGFP-siGFP cells % GFP signal intensity with drug + RNAi-E/Control (no drug) [2, 7]: 59.4446%; Clone#3 293-EGFP-siGFP cells % GFP signal intensity with drug alone/Control (no drug) [2, 8]: 91.5009%; EGFP, 293-EGFP cells Control % (With RNAi-E) [3, 7]: 95.4836%; EGFP, 293-EGFP cells Control % (Drug alone) [3, 8]: 105.776%
O=C1CC[C@]23/C=C/C(=O)NCCCCNCCCNC(=O)/C=C/c4ccc(c2c4)O[C@@H]3C1 [Lunarine]	Enhancer	Enhancer	Enhancer	11171512	9353700	130354040	131010562	
CC(=O)N(O)CCCCCNC(=O)CCC(=O)N(O)CCCCCNC(=O)CCC(=O)N(O)CCCCCN [desferrioxamine]								anti-proliferative activity [4]: anti-proliferative activity; sensitivity of aggressive tumors to Fe chelation therapy ([4]; neuroblastoma (NB) and leukemia, in vitro, in vivo and clinical trials): sensitive
COc1cc2c(cc1OC)C(=O)OC2 [Metameconine]	Inhibitor	Inhibitor	Inhibitor					
NC(=S)NN=Cc1ncccc1N [Triapine, 3-aminopyridine-2-carboxaldehyde thiosemicarbazone]								activity against tumor cell models [4]: has activity against a variety of tumor cell models; anti-proliferative activity [4]: anti-proliferative activity
O=C(O)c1cn(C2CC2)c2cc(N3CCNCC3)c(F)cc2c1=O [ciprofloxacin]								knock-down efficiency of shRNA against luciferase mRNA [5]: increased the knock-down efficiency; siRNA-mediated mRNA degradation [5]: enhance siRNA-mediated mRNA degradation
CC(=O)O[C@H]1C[C@@]2(C)[C@@H](C[C@@H](O)[C@H]3[C@@]4(C)CC[C@@H](O)[C@@H](C)[C@@H]4CC[C@@]32C)/C1=C(\CCC=C(C)C)C(=O)O [Fusidic Acid]	Enhancer	Enhancer	Enhancer	18581363.5	27803206.5	192354884	229560272	
CC(=O)N(O)CCCCCNC(=O)CCC(=O)N(O)CCCCCNC(=O)CCC(=O)N(O)CCCCCN [Deferoxamine Mesylate]				12987131	15874023.8	194519648	194929488	
